Data from patent US10758531B2, “Regimens and compositions for treating HIV infections and AIDS” (ViiV Healthcare Company, priority 2016, dated 2020).

How the values were obtained:
[1] = target: T1, UGT1A1 (Homo sapiens, UniProt P22309); conditions: cited from earlier work
T1 sequence (P22309 26-533): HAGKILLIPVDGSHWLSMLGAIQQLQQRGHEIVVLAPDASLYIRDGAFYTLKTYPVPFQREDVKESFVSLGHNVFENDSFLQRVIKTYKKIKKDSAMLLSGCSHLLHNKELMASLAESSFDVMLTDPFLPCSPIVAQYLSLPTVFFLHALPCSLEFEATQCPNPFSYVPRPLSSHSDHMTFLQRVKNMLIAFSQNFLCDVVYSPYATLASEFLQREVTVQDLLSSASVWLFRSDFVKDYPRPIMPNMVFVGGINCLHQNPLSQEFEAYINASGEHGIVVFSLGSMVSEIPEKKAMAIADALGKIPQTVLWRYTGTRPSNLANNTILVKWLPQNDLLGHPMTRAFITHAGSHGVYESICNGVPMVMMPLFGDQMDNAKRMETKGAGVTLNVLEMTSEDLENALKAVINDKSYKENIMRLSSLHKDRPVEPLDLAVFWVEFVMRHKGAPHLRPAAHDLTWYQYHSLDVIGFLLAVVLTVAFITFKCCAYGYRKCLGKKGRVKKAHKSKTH

[2] = target: T2, UGT1A9 (Homo sapiens, UniProt O60656); conditions: in vitro; cited from earlier work
T2 sequence (O60656 26-530): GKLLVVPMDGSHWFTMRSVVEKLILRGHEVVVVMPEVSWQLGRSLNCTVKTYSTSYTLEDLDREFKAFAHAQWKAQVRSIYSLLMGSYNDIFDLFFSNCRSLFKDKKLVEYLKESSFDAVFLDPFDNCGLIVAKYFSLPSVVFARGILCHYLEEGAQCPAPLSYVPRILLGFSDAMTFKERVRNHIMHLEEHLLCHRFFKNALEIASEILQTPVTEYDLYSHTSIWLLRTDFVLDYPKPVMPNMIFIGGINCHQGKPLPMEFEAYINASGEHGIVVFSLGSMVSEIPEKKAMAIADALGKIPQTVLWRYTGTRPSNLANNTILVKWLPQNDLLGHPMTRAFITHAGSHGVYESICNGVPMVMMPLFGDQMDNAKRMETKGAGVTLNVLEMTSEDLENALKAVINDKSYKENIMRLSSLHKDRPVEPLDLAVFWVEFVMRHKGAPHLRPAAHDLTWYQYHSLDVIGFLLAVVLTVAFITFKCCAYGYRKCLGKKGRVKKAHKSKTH

[3] = target: T3, BCRP (Homo sapiens, UniProt Q9UNQ0); conditions: in vitro; cited from earlier work
T3 sequence (Q9UNQ0 1-655): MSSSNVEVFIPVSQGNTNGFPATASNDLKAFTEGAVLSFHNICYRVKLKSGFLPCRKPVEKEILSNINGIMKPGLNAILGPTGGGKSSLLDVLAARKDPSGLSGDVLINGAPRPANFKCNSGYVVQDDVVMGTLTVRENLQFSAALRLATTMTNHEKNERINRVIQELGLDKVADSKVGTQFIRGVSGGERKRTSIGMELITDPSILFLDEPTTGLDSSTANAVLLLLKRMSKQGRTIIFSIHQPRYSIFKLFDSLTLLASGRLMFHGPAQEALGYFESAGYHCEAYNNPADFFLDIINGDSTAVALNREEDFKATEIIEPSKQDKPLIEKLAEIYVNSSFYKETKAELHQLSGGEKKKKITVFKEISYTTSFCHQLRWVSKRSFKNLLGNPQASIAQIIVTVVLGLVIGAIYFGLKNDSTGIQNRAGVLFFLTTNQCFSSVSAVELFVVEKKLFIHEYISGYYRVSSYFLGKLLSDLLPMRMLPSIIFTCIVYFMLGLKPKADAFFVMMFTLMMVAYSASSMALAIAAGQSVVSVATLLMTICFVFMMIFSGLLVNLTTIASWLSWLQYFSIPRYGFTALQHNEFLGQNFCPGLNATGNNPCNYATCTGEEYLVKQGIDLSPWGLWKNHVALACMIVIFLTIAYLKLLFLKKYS

[4] = target: P-gp (Homo sapiens, UniProt P08183); conditions: in vitro; cited from earlier work
Sequence of P-gp (P08183 whole entry): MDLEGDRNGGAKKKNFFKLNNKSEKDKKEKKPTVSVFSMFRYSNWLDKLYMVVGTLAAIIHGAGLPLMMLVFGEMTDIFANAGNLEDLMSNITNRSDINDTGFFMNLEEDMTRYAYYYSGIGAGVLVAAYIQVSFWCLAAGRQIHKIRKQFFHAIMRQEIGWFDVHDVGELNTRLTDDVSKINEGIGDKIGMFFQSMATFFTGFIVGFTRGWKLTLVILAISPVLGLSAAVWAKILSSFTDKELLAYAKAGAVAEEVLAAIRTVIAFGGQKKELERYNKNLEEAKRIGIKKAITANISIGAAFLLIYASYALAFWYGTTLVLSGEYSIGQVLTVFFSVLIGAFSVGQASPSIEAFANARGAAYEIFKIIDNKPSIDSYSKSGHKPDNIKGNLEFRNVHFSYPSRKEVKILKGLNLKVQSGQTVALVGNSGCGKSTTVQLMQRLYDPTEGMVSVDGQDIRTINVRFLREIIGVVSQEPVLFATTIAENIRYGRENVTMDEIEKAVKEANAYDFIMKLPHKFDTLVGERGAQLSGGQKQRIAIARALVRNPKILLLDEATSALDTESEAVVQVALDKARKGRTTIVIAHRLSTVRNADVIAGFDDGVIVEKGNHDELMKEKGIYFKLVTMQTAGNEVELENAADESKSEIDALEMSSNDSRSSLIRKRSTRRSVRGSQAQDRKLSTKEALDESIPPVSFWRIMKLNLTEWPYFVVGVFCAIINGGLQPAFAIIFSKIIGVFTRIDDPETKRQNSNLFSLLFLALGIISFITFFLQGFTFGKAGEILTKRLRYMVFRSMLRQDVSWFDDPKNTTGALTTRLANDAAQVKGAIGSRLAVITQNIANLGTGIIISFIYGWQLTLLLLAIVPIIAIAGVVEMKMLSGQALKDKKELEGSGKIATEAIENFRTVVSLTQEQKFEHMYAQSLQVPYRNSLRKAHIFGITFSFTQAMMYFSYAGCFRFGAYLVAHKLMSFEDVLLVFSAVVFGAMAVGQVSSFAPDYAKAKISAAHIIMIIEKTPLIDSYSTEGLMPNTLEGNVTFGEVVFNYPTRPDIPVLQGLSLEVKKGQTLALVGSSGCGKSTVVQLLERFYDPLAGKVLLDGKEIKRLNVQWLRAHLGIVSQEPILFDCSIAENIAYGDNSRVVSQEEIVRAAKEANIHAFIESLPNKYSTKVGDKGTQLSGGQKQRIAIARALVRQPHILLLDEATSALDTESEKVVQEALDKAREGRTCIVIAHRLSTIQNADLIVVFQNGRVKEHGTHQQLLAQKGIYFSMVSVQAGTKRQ

[5] = target: T4, UGT1A3 (Homo sapiens, UniProt P35503); conditions: in vitro; cited from earlier work
T4 sequence (P35503 29-534): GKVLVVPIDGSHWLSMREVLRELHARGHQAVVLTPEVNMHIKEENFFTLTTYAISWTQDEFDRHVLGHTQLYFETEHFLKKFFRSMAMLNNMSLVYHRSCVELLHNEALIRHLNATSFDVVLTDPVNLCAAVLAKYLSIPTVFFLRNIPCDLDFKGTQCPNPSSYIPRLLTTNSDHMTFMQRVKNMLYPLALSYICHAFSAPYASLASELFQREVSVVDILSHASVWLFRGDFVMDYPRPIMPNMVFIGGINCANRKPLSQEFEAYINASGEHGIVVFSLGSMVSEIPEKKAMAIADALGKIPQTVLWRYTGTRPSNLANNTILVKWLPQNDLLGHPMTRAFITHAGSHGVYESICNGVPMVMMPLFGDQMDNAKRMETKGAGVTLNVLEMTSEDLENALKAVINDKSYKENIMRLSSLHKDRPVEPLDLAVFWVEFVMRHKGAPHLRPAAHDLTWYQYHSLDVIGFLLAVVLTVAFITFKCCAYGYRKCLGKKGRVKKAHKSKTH

[6] = target: CYP3A4 (Homo sapiens, UniProt P08684); conditions: cited from earlier work
Sequence of CYP3A4 (P08684 whole entry): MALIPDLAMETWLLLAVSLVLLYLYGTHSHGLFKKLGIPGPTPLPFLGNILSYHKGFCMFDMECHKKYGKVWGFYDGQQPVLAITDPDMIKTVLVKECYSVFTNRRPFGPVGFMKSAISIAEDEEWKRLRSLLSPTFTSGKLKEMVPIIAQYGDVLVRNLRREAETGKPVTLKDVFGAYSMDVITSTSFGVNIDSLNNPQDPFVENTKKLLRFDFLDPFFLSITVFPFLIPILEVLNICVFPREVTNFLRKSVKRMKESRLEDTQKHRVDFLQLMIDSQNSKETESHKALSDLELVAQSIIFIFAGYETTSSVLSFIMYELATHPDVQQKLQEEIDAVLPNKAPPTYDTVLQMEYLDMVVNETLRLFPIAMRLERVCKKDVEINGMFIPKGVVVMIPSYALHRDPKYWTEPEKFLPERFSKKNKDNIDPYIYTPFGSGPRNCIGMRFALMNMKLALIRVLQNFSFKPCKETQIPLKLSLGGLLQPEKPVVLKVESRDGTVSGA

[7] = Drug-drug interactions: effect on concentration on co-administration (Table 1)
[8] = tested on: CYP enzymes; conditions: rilpivirine 25 mg once daily; cited from earlier work
[9] = target: T5, human cellular DNA polymerase γ (Homo sapiens, UniProt P54098); conditions: cited from earlier work
T5 sequence (P54098 1-1239): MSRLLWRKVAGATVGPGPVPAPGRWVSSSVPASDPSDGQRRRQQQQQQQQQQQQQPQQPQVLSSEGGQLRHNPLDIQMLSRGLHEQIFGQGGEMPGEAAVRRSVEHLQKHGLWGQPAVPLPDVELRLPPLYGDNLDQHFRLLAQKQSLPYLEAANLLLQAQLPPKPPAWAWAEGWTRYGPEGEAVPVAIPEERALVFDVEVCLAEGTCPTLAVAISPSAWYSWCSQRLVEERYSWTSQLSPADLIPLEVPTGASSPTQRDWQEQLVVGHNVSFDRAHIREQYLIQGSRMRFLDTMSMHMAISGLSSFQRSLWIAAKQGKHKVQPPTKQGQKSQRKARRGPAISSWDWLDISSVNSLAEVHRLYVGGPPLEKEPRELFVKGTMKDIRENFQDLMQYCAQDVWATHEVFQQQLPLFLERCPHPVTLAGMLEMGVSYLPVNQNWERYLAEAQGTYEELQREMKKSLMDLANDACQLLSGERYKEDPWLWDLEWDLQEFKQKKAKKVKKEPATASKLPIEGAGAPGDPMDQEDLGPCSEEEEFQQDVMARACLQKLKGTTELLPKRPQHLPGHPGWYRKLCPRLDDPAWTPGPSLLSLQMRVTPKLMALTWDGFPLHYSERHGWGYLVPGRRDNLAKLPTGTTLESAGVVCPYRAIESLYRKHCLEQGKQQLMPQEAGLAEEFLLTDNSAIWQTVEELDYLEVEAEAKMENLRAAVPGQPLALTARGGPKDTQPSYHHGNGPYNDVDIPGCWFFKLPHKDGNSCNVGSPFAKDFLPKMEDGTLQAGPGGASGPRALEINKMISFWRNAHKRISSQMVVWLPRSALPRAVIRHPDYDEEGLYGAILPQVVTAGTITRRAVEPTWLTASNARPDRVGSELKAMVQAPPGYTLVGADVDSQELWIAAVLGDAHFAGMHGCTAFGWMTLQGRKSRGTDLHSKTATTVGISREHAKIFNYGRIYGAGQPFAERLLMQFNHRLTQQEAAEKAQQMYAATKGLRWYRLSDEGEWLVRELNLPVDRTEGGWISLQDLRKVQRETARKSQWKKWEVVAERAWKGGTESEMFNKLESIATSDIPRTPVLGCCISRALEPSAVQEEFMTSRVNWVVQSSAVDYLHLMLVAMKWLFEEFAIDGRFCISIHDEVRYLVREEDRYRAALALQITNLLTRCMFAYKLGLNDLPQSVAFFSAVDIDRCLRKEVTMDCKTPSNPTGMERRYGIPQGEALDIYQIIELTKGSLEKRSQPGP

[10] = target: human cellular DNA polymerase β (Homo sapiens, UniProt P06746); conditions: cited from earlier work
[11] = tested on: CYP3A; conditions: cited from earlier work
[12] = target: T6, human cellular DNA polymerase α (Homo sapiens, UniProt P09884); conditions: cited from earlier work
T6 sequence (P09884 1-1462): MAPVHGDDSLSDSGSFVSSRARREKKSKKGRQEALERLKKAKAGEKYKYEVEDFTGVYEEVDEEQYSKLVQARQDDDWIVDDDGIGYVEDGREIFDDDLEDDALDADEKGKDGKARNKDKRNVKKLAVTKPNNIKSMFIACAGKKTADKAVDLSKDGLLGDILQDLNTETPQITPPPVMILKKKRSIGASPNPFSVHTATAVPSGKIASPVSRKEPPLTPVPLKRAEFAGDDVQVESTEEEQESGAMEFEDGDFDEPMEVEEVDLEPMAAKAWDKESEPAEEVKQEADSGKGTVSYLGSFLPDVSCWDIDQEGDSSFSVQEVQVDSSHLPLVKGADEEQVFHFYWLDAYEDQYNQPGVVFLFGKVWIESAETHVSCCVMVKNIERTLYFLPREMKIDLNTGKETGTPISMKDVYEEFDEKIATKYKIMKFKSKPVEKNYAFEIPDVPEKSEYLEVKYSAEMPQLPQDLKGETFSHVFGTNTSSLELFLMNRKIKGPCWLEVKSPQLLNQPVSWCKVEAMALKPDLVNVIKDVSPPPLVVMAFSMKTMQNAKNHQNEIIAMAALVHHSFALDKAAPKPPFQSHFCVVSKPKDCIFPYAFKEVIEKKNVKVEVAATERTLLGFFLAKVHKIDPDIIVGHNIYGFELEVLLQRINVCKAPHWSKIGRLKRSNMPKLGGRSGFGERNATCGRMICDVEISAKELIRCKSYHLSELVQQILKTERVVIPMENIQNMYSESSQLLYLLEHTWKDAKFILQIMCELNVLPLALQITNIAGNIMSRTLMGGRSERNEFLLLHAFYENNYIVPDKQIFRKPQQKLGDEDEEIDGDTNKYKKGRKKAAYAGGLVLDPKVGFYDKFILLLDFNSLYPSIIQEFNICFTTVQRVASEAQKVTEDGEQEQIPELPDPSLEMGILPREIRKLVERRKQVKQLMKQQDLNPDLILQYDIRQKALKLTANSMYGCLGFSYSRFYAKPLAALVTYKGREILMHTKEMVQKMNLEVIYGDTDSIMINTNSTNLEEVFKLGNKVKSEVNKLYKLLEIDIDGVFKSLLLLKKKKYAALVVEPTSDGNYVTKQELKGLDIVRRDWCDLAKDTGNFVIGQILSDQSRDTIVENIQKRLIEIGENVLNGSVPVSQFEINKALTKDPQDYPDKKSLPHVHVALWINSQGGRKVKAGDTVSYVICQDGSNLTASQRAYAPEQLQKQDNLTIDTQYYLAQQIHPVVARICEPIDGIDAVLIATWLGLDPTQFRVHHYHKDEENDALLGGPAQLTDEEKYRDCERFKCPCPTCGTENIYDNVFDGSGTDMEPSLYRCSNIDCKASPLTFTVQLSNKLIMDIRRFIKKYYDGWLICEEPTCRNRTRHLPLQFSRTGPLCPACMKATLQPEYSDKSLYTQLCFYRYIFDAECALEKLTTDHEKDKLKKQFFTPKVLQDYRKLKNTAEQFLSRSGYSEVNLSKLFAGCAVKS

O=C(NCc1c(F)cc(F)cc1F)c1cn2c(c(O)c1=O)C(=O)N1[C@H]3CC[C@H](C3)O[C@@H]1C2 [Bictegravir, (2R,5S,13aR)-8-hidroxi-7,9-dioxo-N-[(2,4,6-trifluorofenil)metil]-2,3,4,5,7,9,13,13a-octahidro-2,5-metanopirido [1′,2′:4,5]pirazino[2,1-b][1,3]oxazepina-10-carboxamida]
Metabolic clearance through UGT1A1 [1]: metabolically cleared | Substrate of UGT1A9 [2]: substrate | Substrate of BCRP [3]: substrate | Substrate of P-gp [4]: substrate | Substrate of UGT1A3 [5]: substrate | Metabolic clearance through CYP3A4 [6]: metabolically cleared

CN(C)C(=N)N=C(N)N [Metformin]
Effect on Concentration ([7]; concomitant use of metformin and a composition of the invention): ↑Metformin

CCC(=O)C(CC(C)N(C)C)(c1ccccc1)c1ccccc1 (centres unmarked) [Methadone]
Effect on Concentration ([7]; concomitant use of methadone and a composition of the invention): ↔Methadone

CO[C@H]1/C=C/O[C@@]2(C)Oc3c(C)c(O)c4c(c3C2=O)C2=NC3(CCN(CC(C)C)CC3)NC2=C(NC(=O)/C(C)=C\C=C\[C@H](C)[C@H](O)[C@@H](C)[C@@H](O)[C@@H](C)[C@H](OC(C)=O)[C@@H]1C)C4=O [Rifabutin]
Effect on Concentration ([7]; concomitant use of rifabutin and a composition of the invention): ↔Rifabutin

Cc1cc(/C=C/C#N)cc(C)c1Nc1ccnc(Nc2ccc(C#N)cc2)n1 [Rilpivirine, 4-[[4-[[4-[(E)-2-cyanoethenyl]-2,6-dimethylphenyl]amino]-2-pyrimidinyl]amino]benzonitrile]
Effect on the exposure of medicinal products metabolized by CYP enzymes [8]: not likely to have a clinically relevant effect | Inhibition of human cellular DNA polymerase γ [9]: does not inhibit | Inhibition of human cellular DNA polymerase β [10]: does not inhibit | Metabolism by CYP3A [11]: primarily metabolized | Inhibition of human cellular DNA polymerase α [12]: does not inhibit
